Results published in patent US7875260B2, “Imaging agents for functional imaging of lymphatic structures” (Baylor College of Medicine, priority 2006, dated 2011).

Legend:
[1] = cited from earlier work
[2] = target: T1, LYVE-1 present on the lymph endothelium (swine hindlimb lymph vessel) (Sus scrofa, UniProt I3LTD0); test: Staining of lymph vessels with HA-NIR, compared with ICG; format: in vivo
T1 construct: LYVE-1 present on the lymph endothelium; from tissue; host or cells: live white Yorkshire swine, hindlimb lymph vessels (lymph endothelium)
T1 sequence (I3LTD0 25-326): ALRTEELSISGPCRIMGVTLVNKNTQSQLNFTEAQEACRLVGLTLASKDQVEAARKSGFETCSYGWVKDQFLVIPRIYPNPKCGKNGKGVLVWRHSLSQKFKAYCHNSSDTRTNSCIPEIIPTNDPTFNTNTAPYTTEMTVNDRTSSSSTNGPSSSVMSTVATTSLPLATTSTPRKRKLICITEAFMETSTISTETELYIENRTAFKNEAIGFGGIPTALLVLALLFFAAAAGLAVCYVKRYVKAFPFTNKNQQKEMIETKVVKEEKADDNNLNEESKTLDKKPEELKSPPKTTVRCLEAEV
Experimental: Four, two-month old, 60 lb white Yorkshire swine (K Bar Livestock, HC 69 Box 270 Sabinal, Tex.) were imaged using protocols which were approved by the Baylor College of Medicine Institutional Animal Care and Use Committee. The animals were anesthetized, intubated, and maintained with isoflurane. Animal body temperature was maintained at 100° F. using a warming blanket. At the end of the procedure, the animals were euthanized and lymph nodes resected with fluorescence guidance.
Continuous-wave optical imaging of the fluorescent NIR dyes was performed with a custom built intensified charged-coupled device (CCD). Reynolds J S, Troy T L, and Sevick-Muraca E M. Multipixel techniques for frequency-domain photon migration imaging. Biotechnol Prog 13: 669-680, 1997., incorporated herein by reference in its entirety for all purposes. Briefly, the device had three principal components: 1) a NIR-sensitive image intensifier (model FS9910C ITT Night Vision, Roanoke, Va.); 2) a 16-bit dynamic range, frame transfer CCD camera (Roper Scientific, Tucson, Ariz.); and 3) a 785-nm laser diode (Thorlabs) used to provide the excitation light for activating ICG and hyaluronan-NIR. The 785-nm laser diode beam was expanded by using a planoconvex lens and a holographic optical diffuser such that approximately 0.08 m^2 of the swine's body was illuminated. A 785-nm holographic notch band rejection filter (model HNPF-785.0-2.0, Kaiser Optical Systems, Ann Arbor, Mich.) and an 830-nm image quality bandpass filter (model 830.0-2.0, Andover, Salem, N.H.) were placed before the 28-mm Nikkor lens (Nikon) to selectively reject the excitation light and pass the emitted 830-nm wavelength. […]
Images were processed using MATLAB (The Mathworks, Natick, Mass.), ImageJ (National Institutes of Health, Bethesda, Md.), and V++ (Digital Optics, Auckland, New Zealand). […] To reveal the frequency of the pulsatile flow, which is a characteristic of pumping lymphatics, the mean fluorescence intensity from a fixed region of interest on a lymph channel was selected and plotted as a function of imaging time. […]

Row | Compound | fraction broken down in the liver ([1]; liver) [%] | fraction degraded in lymph nodes ([1]; lymph nodes) [%] | normalized fluorescent intensity at fixed ROI as a function of time (FIG. 10C) ([2]; image acquisition 6 min, leg lymph vessel) | propulsion of packets ([2]; intradermal, 64 μM HA-NIR or 32 μM ICG, swine hindlimb vessel) | fluorescent intensity as a function of vessel length and time (FIGS. 11C, 11D) ([2]; swine lymph vessels)
1 | hyaluronic acid [HA] | 10 | 90 |  |  | 
2 | CC1(C)C(/C=C/C=C/C=C/C=C2\N(CCCCS(=O)(=O)O)c3ccc4ccccc4c3C2(C)C)=[N+](CCCCS(=O)(=O)[O-])c2ccc3ccccc3c21 [ICG, indocyanine green] |  |  | fluctuation and net reduction of intensity | observed | varies with time and length along the vessel
